Measurements published in the supplement of paper PMC11208160.

Test: recombinant barcode read abundance after kanamycin selection (control-corrected) (log10(CPM+1)); higher = more efficient recombination; sequences stand for … in AGTGCAGAGAAAATCGGCCAGTTTTCTCTGCCTGCAGTCCGCATGCCGT…AGATTTATGCAGCGGACTGCCTTTCTCCCAAAGTGATAAACCGGACAGTATCATGGACCGGTTTTCCCGGTAATCCGTATTTGCAAGGTTGGTTTCACT; site = the 11-nt target
How it was run: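 Recombination efficiency draws on barcodes counted at recombinant junctions in a pooled E. coli screen of targets paired with IS621 bridge RNA target-binding loops. The counts were converted to counts per million, averaged and corrected against the chloramphenicol/ampicillin LB agar control, then reported as log10(CPM+1). Selection plates held chloramphenicol/ampicillin/kanamycin with 0.1 mM IPTG, with two replicates per condition.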
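Note: IS621 recombinase and bridge RNA in Escherichia coli cells.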

In order of falling “recombinant barcode read abundance (log10)” value:
1. GAAAGCTCTTGGGTTCTAACCTGTTGCGT (site GAAAGCTCTAC)  2.99
2. GAAGTCCCTTGGGTTCTAACCTGTTGCCT (site GAAGTCCCTAG)  1.82
3. GAAGGCGCTTGGGTTCTAACCTGTTGCCT (site GAAGGCGCTAG)  1.81
4. GAACCTACTTGGGTTCTAACCTGTTGCGG (site GAACCTACTCC)  1.77
5. CTTCACCCTTGGGTTCTAACCTGTTGCCT (site CTTCACCCTAG)  1.76
6. GAAATGTCTTGGGTTCTAACCTGTTGCCT (site GAAATGTCTAG)  1.75
7. CTTCGAGCTTGGGTTCTAACCTGTTGCTG (site CTTCGAGCTCA)  1.52
8. CTTCGGGCTTGGGTTCTAACCTGTTGCAT (site CTTCGGGCTAT)  1.26
9. GAAAGTGCTTGGGTTCTAACCTGTTGCCT (site GAAAGTGCTAG)  1.23
10. GAAGTCCCTTGGGTTCTAACCTGTTGCCT (site TAAGTCCCTAG)  1.22
11. GAAGACGCTTGGGTTCTAACCTGTTGCCT (site GAAGACGCTAG)  1.14
12. GAAATAACTTGGGTTCTAACCTGTTGCGT (site GAAATAACTAC)  0.995
13. CTTGGATCTTGGGTTCTAACCTGTTGCCT (site CTTGGATCTAG)  0.913
14. GAAGTCCCTTGGGTTCTAACCTGTTGCCT (site CAAGTCCCTAG)  0.848
15. GAAACTGCTTGGGTTCTAACCTGTTGCCT (site GAAACTGCTAG)  0.736
16. CTTACAGCTTGGGTTCTAACCTGTTGCCT (site CTTACAGCTAG)  0.644
17. GAAATGTCTTGGGTTCTAACCTGTTGCCT (site GTAATGTCTAG)  0.634
18. CTTAGGACTTGGGTTCTAACCTGTTGCCG (site CTTAGGACTCG)  0.577
19. GAAGTCCCTTGGGTTCTAACCTGTTGCCT (site AAAGTCCCTAG)  0.558
20. CTGTTGTCTTGGGTTCTAACCTGTTGCCA (site CTGTTGTCTTG)  0.487
21. CTTTGGCCTTGGGTTCTAACCTGTTGCTT (site CCTTGGGCTAA)  0.439
22. CTTAGTACTTGGGTTCTAACCTGTTGCAT (site GACGTGCCTCG)  0.432
23. CTTGGGCCTTGGGTTCTAACCTGTTGCCT (site CTTGGGCCTAG)  0.417
24. CTTGCATCTTGGGTTCTAACCTGTTGCCT (site CTTGCATCTAG)  0.383
25. CTTCAATCTTGGGTTCTAACCTGTTGCCT (site CTTGAATCTAG)  0.35
26. CTTTGTGCTTGGGTTCTAACCTGTTGCCT (site CTTAGGGCTAG)  0.32
27. GAAGACGCTTGGGTTCTAACCTGTTGCCT (site GAAGCCGCTAG)  0.315
28. GAAGGCGCTTGGGTTCTAACCTGTTGCCT (site GAAGCCGCTAG)  0.306
29. CTTCGAGCTTGGGTTCTAACCTGTTGCTG (site CTTCGAGCTCT)  0.294
30. CTTGCATCTTGGGTTCTAACCTGTTGCCT (site GGGCACACTGT)  0.293
31. GAAGTGCCTTGGGTTCTAACCTGTTGCCT (site GAAGAGCCTAG)  0.272
32. CTTCAATCTTGGGTTCTAACCTGTTGCCT (site CTTCAATCTAG)  0.267
33. CTTAGGACTTGGGTTCTAACCTGTTGCCA (site CTTAGGACTTG)  0.265
34. GAAATGTCTTGGGTTCTAACCTGTTGCCT (site GGAATGTCTAG)  0.262
35. CTTAGGACTTGGGTTCTAACCTGTTGCCA (site CTTAGGACTAG)  0.257
36. CTTAGTACTTGGGTTCTAACCTGTTGCAT (site CTTAGTACTAT)  0.246
37. CTTCGGGCTTGGGTTCTAACCTGTTGCAT (site CTTTGAGCTAT)  0.242
38. CTTGGAACTTGGGTTCTAACCTGTTGCCT (site CTTGGACCTAG)  0.242
39. CTTAGGACTTGGGTTCTAACCTGTTGCCG (site CTTAGGACTAG)  0.235
40. CTTGGAACTTGGGTTCTAACCTGTTGCCT (site CTTGGATCTAG)  0.228
41. CTTGGAACTTGGGTTCTAACCTGTTGCCT (site CTTGGAACTAG)  0.224
42. GAAACTGCTTGGGTTCTAACCTGTTGCCT (site GACACTGCTAG)  0.211
43. CTGTTGTCTTGGGTTCTAACCTGTTGCCA (site CTGATGTCTTG)  0.204
44. CTTAGGACTTGGGTTCTAACCTGTTGCCG (site CTTAGGACTTG)  0.199
45. CTTCGAGCTTGGGTTCTAACCTGTTGCTG (site CTTCGAGCTCC)  0.193
46. GAAGGCGCTTGGGTTCTAACCTGTTGCCT (site GAAGACGCTAG)  0.187
47. CTTGGGCCTTGGGTTCTAACCTGTTGCCT (site CGTGGGCCTAG)  0.186
48. CTTCGAGCTTGGGTTCTAACCTGTTGCTG (site CTTCGAGCTCG)  0.184
49. GAAATAACTTGGGTTCTAACCTGTTGCGT (site AGCCCTCCTCT)  0.169
50. CTTGGGCCTTGGGTTCTAACCTGTTGCCT (site CCTGGGCCTAG)  0.16
51. GAAACTGCTTGGGTTCTAACCTGTTGCCT (site GAGACTGCTAG)  0.158
52. CTTAGGACTTGGGTTCTAACCTGTTGCCG (site CTTAGGACTGG)  0.155
53. CTTACAGCTTGGGTTCTAACCTGTTGCCT (site CTTACTGCTAG)  0.147
54. CTTCAATCTTGGGTTCTAACCTGTTGCCT (site CTTAAATCTAG)  0.146
55. CTTGGATCTTGGGTTCTAACCTGTTGCCT (site CTTGGAACTAG)  0.142
56. CTTACAGCTTGGGTTCTAACCTGTTGCCT (site CTTACCGCTAG)  0.138
57. CTTCACCCTTGGGTTCTAACCTGTTGCCT (site CTTCAACCTAG)  0.134
58. CTTTGTGCTTGGGTTCTAACCTGTTGCCT (site CTTTGTGCTAG)  0.129
59. GAAGACGCTTGGGTTCTAACCTGTTGCCT (site GAAGTCGCTAG)  0.126
60. CTTCACCCTTGGGTTCTAACCTGTTGCCT (site CTTCAGCCTAG)  0.117
61. CTTGGATCTTGGGTTCTAACCTGTTGCCT (site CTTGGACCTAG)  0.116
62. GAACCTACTTGGGTTCTAACCTGTTGCGG (site GAACCTACTTC)  0.107
63. CTTTGAACTTGGGTTCTAACCTGTTGCTA (site TCGATCCCTAC)  0.102
64. CTTTGGCCTTGGGTTCTAACCTGTTGCTT (site CTTTGGCCTAA)  0.0961
65. CTTAGGACTTGGGTTCTAACCTGTTGCCA (site CTTAGGACTGG)  0.0906
66. GAAAGTGCTTGGGTTCTAACCTGTTGCCT (site CAAAGTGCTAG)  0.0857
67. CTTCGCACTTGGGTTCTAACCTGTTGCCT (site CCTCGCACTAG)  0.0814
68. GAAAGCTCTTGGGTTCTAACCTGTTGCGT (site TCCTATGCTCG)  0.0782
69. CTTCAATCTTGGGTTCTAACCTGTTGCCT (site CTTTAATCTAG)  0.0762
70. CTTGGATCTTGGGTTCTAACCTGTTGCCT (site CTTGGAGCTAG)  0.0716
71. GAAGTGCCTTGGGTTCTAACCTGTTGCCT (site GAAGCGCCTAG)  0.0713
72. CTTCGCACTTGGGTTCTAACCTGTTGCCT (site CTTCGCACTAG)  0.0708
73. CTGTTGTCTTGGGTTCTAACCTGTTGCCA (site CTGGTGTCTTG)  0.0643
74. GAAACTGCTTGGGTTCTAACCTGTTGCCT (site GATACTGCTAG)  0.0634
75. GAAGGCGCTTGGGTTCTAACCTGTTGCCT (site GAAGTCGCTAG)  0.0553
76. CTTGGGCCTTGGGTTCTAACCTGTTGCCT (site CATGGGCCTAG)  0.0436
77. CTTCGCACTTGGGTTCTAACCTGTTGCCT (site CATCGCACTAG)  0.0381
78. GAAATGTCTTGGGTTCTAACCTGTTGCCT (site GCAATGTCTAG)  0.0338
79. CTTAGGACTTGGGTTCTAACCTGTTGCCA (site CTTAGGACTCG)  0.0285
80. CTTTGAACTTGGGTTCTAACCTGTTGCTA (site CTTTGAACTTA)  0.016
81. CTTACAGCTTGGGTTCTAACCTGTTGCCT (site CTTACGGCTAG)  0.0141
82. CTTCGCACTTGGGTTCTAACCTGTTGCCT (site CGTCGCACTAG)  0.0111
83. CTTCACCCTTGGGTTCTAACCTGTTGCCT (site CTTCATCCTAG)  0.00728
84. CTGTTGTCTTGGGTTCTAACCTGTTGCCA (site CTGCTGTCTTG)  0.00714
85. CTTGGAACTTGGGTTCTAACCTGTTGCCT (site CTTGGAGCTAG)  0
86. GAAGACGCTTGGGTTCTAACCTGTTGCCT (site GAAGGCGCTAG)  0
